Results from patent publication US11434212B2, “Bicyclic compound as a caspase inhibitor” (CHIA TAI TIANQING PHARMACEUTICAL GROUP CO., LTD., priority 2017, dated 2022).

Legend:
Type in all cases: biochemical
Conditions in all cases: fluorogenic substrate 50 μM; test concentrations 1000 nM to 0.32 nM
Caspase-8 = molecular target: T1, Caspase-8 (Homo sapiens, UniProt Q14790); assay: In vitro inhibitory activity on Caspase-8 (BioVision Caspase-8 Inhibitor Screening Kit)
T1 construct: purchased BioVision K158-100
T1 sequence (Q14790 217-374 limits assumed): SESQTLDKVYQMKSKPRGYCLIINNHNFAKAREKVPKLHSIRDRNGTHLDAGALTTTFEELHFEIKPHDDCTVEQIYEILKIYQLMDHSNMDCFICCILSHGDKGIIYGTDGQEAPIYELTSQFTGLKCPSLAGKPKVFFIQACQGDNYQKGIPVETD
T1 sequence (Q14790 385-479 limits assumed): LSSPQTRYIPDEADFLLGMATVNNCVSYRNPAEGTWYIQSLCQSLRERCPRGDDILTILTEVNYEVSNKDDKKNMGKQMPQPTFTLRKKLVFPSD
Procedure: (§1) Caspase Inhibitor Screening Kit for BioVision was used in this experiment to test the inhibitory activity of the test compounds on Caspase.
Caspase-8 Inhibitor Screening Kit (BioVision #K158-100)
(§2) Note: Each caspase enzymatic experiment uses the reagents in corresponding kit thereof. Each enzyme was dissolved in 550 μl of the corresponding 2× reaction buffer, sub-packed and stored at −80° C., respectively.
(§3) 1) The compound was diluted to a 200*test concentration with DMSO via the multiple dilution, then to a 2*test concentration with ddH2O, and added to a 384-well experimental plate at 12.5 μl per well. Test compounds and control compounds were tested at 6 concentration points, test concentrations ranging from 1000 nM to 0.32 nM. The ddH2O containing 1% DMSO was added to the 0% inhibition control well, and a high concentration of the control compound was added to the 100% inhibition control well (final concentration: 5 μM).
(§4) 2) 2× reaction buffer containing 10 mM DTT was prepared. The enzyme caspase stock solution was diluted 5-fold with 2× reaction buffer containing 10 mM DTT and added to a 384-well experimental plate at 6.25 μl per well. After being mixed, the enzyme and compounds were incubated at 37° C. for 30 minutes.
(§5) 3) The fluorogenic substrate of the enzyme caspase was diluted 5-fold with 2× reaction buffer containing 10 mM DTT, and then added to a 384-well experimental plate at 6.25 μl per well. The total reaction volume was 25 μl, the final concentration of the substrate was 50 μM, and the final concentration of DMSO was 0.5%. After the substrate was added, the 384-well experimental plate was incubated at 37° C. for 30 minutes.
(§6) 4) The fluorescence intensity (excitation light wavelength was 400 nm, emission light wavelength was 505 nm) was measured by using a multi-function microplate reader. Fluorescence intensity was used to calculate the inhibitory effect of the compounds on Caspase. GraphPad Prism software was used for fitting compound inhibition curves and calculating IC50 values.

Caspase-1 = molecular target: T2, Caspase-1 (Homo sapiens, UniProt P29466); assay: In vitro inhibitory activity on Caspase-1 (BioVision Caspase-1 Inhibitor Screening Kit)
T2 construct: purchased BioVision K151-100
T2 sequence (P29466 120-297 limits assumed): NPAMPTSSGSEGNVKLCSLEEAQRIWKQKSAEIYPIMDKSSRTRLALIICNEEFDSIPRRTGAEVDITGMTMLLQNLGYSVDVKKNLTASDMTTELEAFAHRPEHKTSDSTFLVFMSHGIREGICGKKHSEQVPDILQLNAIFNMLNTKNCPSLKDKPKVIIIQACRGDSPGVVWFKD
T2 sequence (P29466 317-404 limits assumed): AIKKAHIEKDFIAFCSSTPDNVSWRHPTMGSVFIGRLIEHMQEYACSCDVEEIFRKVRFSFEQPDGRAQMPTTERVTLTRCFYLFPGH
Procedure: as §1
Caspase-1 Inhibitor Screening Kit (BioVision #K151-100)
as §2, §3, §4, §5, §6

Caspase-3 = molecular target: T3, Caspase-3 (Homo sapiens, UniProt P42574); assay: In vitro inhibitory activity on Caspase-3 (BioVision Caspase-3 Inhibitor Screening Kit)
T3 construct: purchased BioVision K153-100
T3 sequence (P42574 29-175 limits assumed): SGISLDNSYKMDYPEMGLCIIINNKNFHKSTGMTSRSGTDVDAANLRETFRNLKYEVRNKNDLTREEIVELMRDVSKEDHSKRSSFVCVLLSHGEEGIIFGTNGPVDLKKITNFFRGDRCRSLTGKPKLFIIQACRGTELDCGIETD
T3 sequence (P42574 176-277 limits assumed): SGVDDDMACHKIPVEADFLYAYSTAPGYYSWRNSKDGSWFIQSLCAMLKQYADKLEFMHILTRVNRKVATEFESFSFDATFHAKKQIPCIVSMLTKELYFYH
Procedure: as §1
Caspase-3 Inhibitor Screening Kit (BioVision #K153-100)
as §2, §3, §4, §5, §6

| IC50 (Caspase-8) [nM] | IC50 (Caspase-1) [nM] | IC50 (Caspase-3) [nM] | SMILES |
| --- | --- | --- | --- |
| 17.9 | 6.7 | 21 | C[C@H](NC(=O)c1cc(-c2ccccc2F)on1)C(=O)N[C@@H](CC(=O)O)C(=O)COc1c(F)c(F)cc(F)c1F [Example 12] |
| 24.6 | 5.3 | 29.6 | C[C@H](NC(=O)c1ncc(-c2ccccc2)s1)C(=O)N[C@@H](CC(=O)O)C(=O)COc1c(F)c(F)cc(F)c1F [Example 2] |
